Test results as given in BigSolDB 2.1.

## CC(=O)N1CCC[C@H]1C(=O)O
In 1,4-dioxane, 288.15 K
  solubility (mole fraction): 0.0237
In 1,4-dioxane, 293.15 K
  solubility (mole fraction): 0.0291
In 1,4-dioxane, 303.15 K
  solubility (mole fraction): 0.0416
In 1,4-dioxane, 313.15 K
  solubility (mole fraction): 0.0673
In 1,4-dioxane, 323.15 K
  solubility (mole fraction): 0.13
In 2-butanone, 283.15 K
  solubility (mole fraction): 0.0113
In 2-butanone, 293.15 K
  solubility (mole fraction): 0.0161
In 2-butanone, 303.15 K
  solubility (mole fraction): 0.0237
In 2-butanone, 313.15 K
  solubility (mole fraction): 0.0339
In 2-butanone, 323.15 K
  solubility (mole fraction): 0.0553
In acetone, 283.15 K
  solubility (mole fraction): 0.0158
In acetone, 293.15 K
  solubility (mole fraction): 0.0247
In acetone, 303.15 K
  solubility (mole fraction): 0.0348
In acetone, 313.15 K
  solubility (mole fraction): 0.0484
In acetone, 323.15 K
  solubility (mole fraction): 0.0673
In acetonitrile, 283.15 K
  solubility (mole fraction): 0.0159
In acetonitrile, 293.15 K
  solubility (mole fraction): 0.0335
In acetonitrile, 303.15 K
  solubility (mole fraction): 0.0558
In acetonitrile, 313.15 K
  solubility (mole fraction): 0.131
In acetonitrile, 323.15 K
  solubility (mole fraction): 0.255
In dichloromethane, 283.15 K
  solubility (mole fraction): 0.0336
In dichloromethane, 288.15 K
  solubility (mole fraction): 0.0448
In dichloromethane, 293.15 K
  solubility (mole fraction): 0.0609
In dichloromethane, 298.15 K
  solubility (mole fraction): 0.0785
In dichloromethane, 303.15 K
  solubility (mole fraction): 0.0974
In ethanol, 283.15 K
  solubility (mole fraction): 0.0754
In ethanol, 293.15 K
  solubility (mole fraction): 0.111
In ethanol, 303.15 K
  solubility (mole fraction): 0.156
In ethanol, 313.15 K
  solubility (mole fraction): 0.219
In ethanol, 323.15 K
  solubility (mole fraction): 0.278
In ethyl acetate, 283.15 K
  solubility (mole fraction): 0.00368
In ethyl acetate, 293.15 K
  solubility (mole fraction): 0.00634
In ethyl acetate, 303.15 K
  solubility (mole fraction): 0.0096
In ethyl acetate, 313.15 K
  solubility (mole fraction): 0.0133
In ethyl acetate, 323.15 K
  solubility (mole fraction): 0.0201
In isobutanol, 283.15 K
  solubility (mole fraction): 0.0448
In isobutanol, 293.15 K
  solubility (mole fraction): 0.0643
In isobutanol, 303.15 K
  solubility (mole fraction): 0.106
In isobutanol, 313.15 K
  solubility (mole fraction): 0.146
In isobutanol, 323.15 K
  solubility (mole fraction): 0.2
In isopropanol, 283.15 K
  solubility (mole fraction): 0.0448
In isopropanol, 293.15 K
  solubility (mole fraction): 0.0732
In isopropanol, 303.15 K
  solubility (mole fraction): 0.099
In isopropanol, 313.15 K
  solubility (mole fraction): 0.143
In isopropanol, 323.15 K
  solubility (mole fraction): 0.177
In methanol, 283.15 K
  solubility (mole fraction): 0.122
In methanol, 293.15 K
  solubility (mole fraction): 0.166
In methanol, 303.15 K
  solubility (mole fraction): 0.21
In methanol, 313.15 K
  solubility (mole fraction): 0.291
In methanol, 323.15 K
  solubility (mole fraction): 0.406
In methyl acetate, 283.15 K
  solubility (mole fraction): 0.00602
In methyl acetate, 293.15 K
  solubility (mole fraction): 0.00997
In methyl acetate, 303.15 K
  solubility (mole fraction): 0.0147
In methyl acetate, 313.15 K
  solubility (mole fraction): 0.0213
In methyl acetate, 323.15 K
  solubility (mole fraction): 0.0322
In n-butanol, 283.15 K
  solubility (mole fraction): 0.0412
In n-butanol, 293.15 K
  solubility (mole fraction): 0.059
In n-butanol, 303.15 K
  solubility (mole fraction): 0.0877
In n-butanol, 313.15 K
  solubility (mole fraction): 0.133
In n-butanol, 323.15 K
  solubility (mole fraction): 0.199
In n-pentanol, 283.15 K
  solubility (mole fraction): 0.0377
In n-pentanol, 293.15 K
  solubility (mole fraction): 0.0532
In n-pentanol, 303.15 K
  solubility (mole fraction): 0.075
In n-pentanol, 313.15 K
  solubility (mole fraction): 0.111
In n-pentanol, 323.15 K
  solubility (mole fraction): 0.158
In n-propanol, 283.15 K
  solubility (mole fraction): 0.0961
In n-propanol, 293.15 K
  solubility (mole fraction): 0.14
In n-propanol, 303.15 K
  solubility (mole fraction): 0.195
In n-propanol, 313.15 K
  solubility (mole fraction): 0.267
In n-propanol, 323.15 K
  solubility (mole fraction): 0.334
In sec-butanol, 283.15 K
  solubility (mole fraction): 0.0429
In sec-butanol, 293.15 K
  solubility (mole fraction): 0.062
In sec-butanol, 303.15 K
  solubility (mole fraction): 0.0915
In sec-butanol, 313.15 K
  solubility (mole fraction): 0.132
In sec-butanol, 323.15 K
  solubility (mole fraction): 0.189
In water, 283.15 K
  solubility (mole fraction): 0.0127
In water, 293.15 K
  solubility (mole fraction): 0.0188
In water, 303.15 K
  solubility (mole fraction): 0.0269
In water, 313.15 K
  solubility (mole fraction): 0.042
In water, 323.15 K
  solubility (mole fraction): 0.0738
